Data on 1 compound can be found in article PMC2730762 (Biochemistry, 2009).

Test [1] deals with naturally-occurring PfPM1. The conditions noted are these: cited from earlier work.
In a further test the target is PfPM1 (Plasmodium falciparum, UniProt Q7KQM4). Kind of test: biochemical.
Test [2] has as its system cultured P. falciparum parasites. The conditions noted are these: cited from earlier work.

Structures are written as SMILES. Where a SMILES comes first, the peptide text is derived from it. [ ]: non-standard residue; d: D form. The star is where a group is joined. Sta = CC(C)C[C@H](N)[C@@H](O)CC(=O)O; Isovaleryl = CC(C)CC(=O)*

PfPM1, sequence (Q7KQM4 124-452): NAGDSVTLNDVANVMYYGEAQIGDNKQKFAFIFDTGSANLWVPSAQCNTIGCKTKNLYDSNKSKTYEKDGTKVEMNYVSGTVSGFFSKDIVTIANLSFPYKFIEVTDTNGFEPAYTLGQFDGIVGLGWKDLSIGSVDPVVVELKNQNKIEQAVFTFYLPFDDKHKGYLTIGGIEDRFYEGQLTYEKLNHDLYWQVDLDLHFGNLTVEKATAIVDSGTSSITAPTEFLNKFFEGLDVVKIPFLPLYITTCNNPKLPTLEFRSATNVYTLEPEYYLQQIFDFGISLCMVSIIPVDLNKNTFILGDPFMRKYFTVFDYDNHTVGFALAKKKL

Regarding `CC(C)CC(=O)N[C@H](C(=O)N[C@H](C(=O)N[C@@H](CC(C)C)[C@@H](O)CC(=O)N[C@@H](C)C(=O)N[C@@H](CC(C)C)[C@@H](O)CC(=O)O)C(C)C)C(C)C` [pepstatin A] (Isovaleryl-VV[Sta]A[Sta]-OH), the Ki in test [1] was 0.7 nM; on PfPM1, 1.4 ± 0.2 nM. For the same compound, the “killing of cultured P. falciparum parasites” value in test [2] was “kill cultured P. falciparum parasites”.

The Ki is the dissociation constant of the complex between target and ligand, obtained from inhibition or displacement.
